Here are results for one substance from patent publication US20250051419A1, “POLYPEPTIDE MODULATORS” (Georgiamune Inc., priority 2021, published 2025).

One experiment addresses T1, PD-1 (Mus musculus, UniProt Q02242).
T1 construct: endogenous in cells
T1 sequence (Q02242 25-288): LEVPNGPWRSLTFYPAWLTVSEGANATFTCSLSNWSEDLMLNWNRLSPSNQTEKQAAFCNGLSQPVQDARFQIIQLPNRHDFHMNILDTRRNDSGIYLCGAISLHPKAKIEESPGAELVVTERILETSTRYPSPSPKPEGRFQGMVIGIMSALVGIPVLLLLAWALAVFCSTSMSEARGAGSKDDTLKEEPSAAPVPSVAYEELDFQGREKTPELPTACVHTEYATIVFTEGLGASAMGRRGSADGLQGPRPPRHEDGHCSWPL
Description: Immunoprecipitation of PD-1 and Western blot of PD-1 bound ITK and SHP2. It counts as cell-based. Particulars: pre-activated primary mouse CD4 T cells, PD-1 immune-precipitated 5 minutes after treatment, Western blot, compared to control Ab. As for the experimental part: FIGS. 4 and 5 show the modulation of ITK and its effects on immune response. […] However, when there is more ITK than SHP2, a stimulatory signal was generated. When there is the same amount of ITK and SHP2, the immune response was either inhibitory or activating. […] Thus, an activator of ITK would have the effect of enhancing an immune response and an inhibitor of ITK can suppress the immune response. […] PD-1 was immune-precipitated with beads 5 minutes after pre-activated primary mouse CD4 T cells were treated with PD-L1-IgG, PD-L2-IgG or anti-PD-1 mouse blocking antibody (clone RMP1-14).
(Immunoblotting shows a protein as a band on a membrane.)

The next experiment has as its system human CD4 T cells. The experiment in a line: Flow cytometry of Tcm and Tte after PD-L2-IgG treatment of stimulated T cells. It counts as cell-based. Conditions: 25 μg/mL, 48 hours after treatment, vs untreated, p<0.05. The procedure: After 72 hours, the cells were treated with PD-L2-IgG at concentration of 25 μg/mL. Control wells were left untreated. Forty-eight hours after treatment, the cells were collected, washed and stained with the fluorophore labeled antibodies, and analyzed by flow cytometry. Tom were defined as CD45RO^high/CD62L^high/CD45RA^low. Exhausted T cells or terminal effector T cells (“Tte”) were defined as CD45RO^low/CD62L^low/CD45RA^high.
On the technique in general: In flow cytometry, cells or beads pass a laser one at a time.

In the case of “PD-L2-IgG: PD-L2 fused to IgG, used to treat T cells; sequence not stated at the place”, in the experiment with PD-1, the “ITK/SHP2 ratio (PD-1 bound ITK and SHP2)” value is recorded as “increased”. Also, in the experiment on human CD4 T cells, the “Tcm (CD45RO high/CD62L high/CD45RA low)” value is recorded as “significant increase” and the “Tte (exhausted or terminal effector T cells, CD45RO low/CD62L low/CD45RA high)” value is “significant decrease”.
